Laboratory results from patent US5348975A, “7-chromanyl esters of phenols and benzoic acids having retinoid-like activity” (Allergan, Inc., priority 1993, dated 1994).

Legend:
[1] = system: ornithine decarboxylase (ODC); conditions: literature background, cited from earlier work
[2] = system: ornithine decarboxylase (ODC); assay: inhibition of TPA-induced ornithine decarboxylase (ODC) activity (retinoic acid-like activity; essentially method of Verma & Boutwell); type: in vivo
Description: The retionic acid like activity of these compounds was confirmed through the classic measure of retionic acid activity involving the effects of retionic acid on ornithine decarboxylase. The original work on the correlation between retinoic acid and decrease in cell proliferation was done by Verma & Boutwell, Cancer Research, 1977, 37, 2196-2201. That reference discloses that ornithine decarboxylase (ODC) activity increased precedent to polyamine biosynthesis. It has been established elsewhere that increases in polyamine synthesis can be correlated or associated with cellular proliferation. Thus, if ODC activity could be inhibited, cell hyperproliferation could be modulated.
By way of example of retinoic acid-like activity it is noted that in the assay conducted essentially in accordance with the method of Verma & Boutwell, ibid, the following examples of the preferred compounds of the present invention (Compounds 1, 2 and 3) elicited the following percent inhibition of TPA-induced ODC activity at the given calculations: […]

## CCCCCCCCCCCCCC(=O)O[C@@H]1[C@@H](C)[C@@]2(O)[C@@H](C=C(CO)C[C@]3(O)C(=O)C(C)=C[C@@H]23)[C@@H]2C(C)(C)[C@]12OC(C)=O [TPA, 12-0-tetradecanoyl-phorbol-13-acetate]
[1]; TPA
  induction of ODC activity (in words): induces ODC activity

## CC1(C)CC(C)(C)c2ccc(C(=O)Oc3ccc(C(=O)O)cc3)cc2O1 [Compound 3, 4-(2,2,4,4-tetramethyl-7-chromanoyloxy) benzoic acid]
[2]; Dose 30 nmol
  % inhibition of TPA-induced ODC activity: 86%

## CC1(C)CC(C)(C)c2ccc(C(=O)Oc3ccc(C(=O)OCc4ccccc4)cc3)cc2O1 [Compound 2, Benzyl 4-(2,2,4,4,tetramethyl-7-chromanoyloxy)benzoate]
[2]; Dose 300 nmol
  % inhibition of TPA-induced ODC activity: 84%

## CCOC(=O)c1ccc(OC(=O)c2ccc3c(c2)OC(C)(C)CC3(C)C)cc1 [Compound 1, Ethyl 4-(2,2,4,4-tetramethyl-7-chromanoyloxy) benzoate]
[2]; Dose 30 nmol
  % inhibition of TPA-induced ODC activity: 100%

## CC1=C(/C=C/C(C)=C/C=C/C(C)=C/C(=O)O)C(C)(C)CCC1 [Retinoic acid]
[1]; retinoic acid
  inhibition of TPA induction of ODC activity (in words): inhibits this induction of ODC activity by TPA
